# Reference: patent US9409037B2, “Enhanced anti-microbial PDT” (Biolitec Pharma Marketing LTD, priority 2010, dated 2016)
# System: Staphylococcus aureus
# Experiment: Antimicrobial PDT killing of bacteria in calf serum in a flow system
# Type: cell-based
# Conditions: 20 μM Safranin O in 99% calf serum; 532 nm laser, fluence rate 30 mW/cm^2, continuous irradiation; three passages, flow rate 10 ml/min
# Description: In a separate test a composition comprising Safranin O was added to calf serum (100% serum) solution containing Staphylococcus aureus ([…]), which is a common component of the micro flora of wounds, resulting in a final concentration of 20 μM Safranin O in 99% calf serum. Irradiation was delivered in a flow system corresponding to FIG. 3 B via a light fiber from a laser, Ceralas G2 (Biolitec AG, Germany) operating at 532 nm and using a fluence rate of 30 mW/cm^2.
smiles,measurement,value
Cc1cc2nc3cc(C)c(N)cc3[n+](-c3ccccc3)c2cc1N.[Cl-] [Safranin O],percentage of killing of bacteria,about 99.9%
